According to patent US12173088B2, “Anti-microbial peptides” (priority 2018, dated 2024):
≈ marks a conversion by molar mass, not a printed value. Peptide text beside a SMILES is read from it.

Experiments:
P. aeruginosa PAO1 = type: cell-based, Pseudomonas aeruginosa; details: PAO1
Summary of the method: (§1)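 Broth microdilution in tryptic soy broth: log-phase cultures (OD600 ≈0.5) diluted to OD600 0.001, given two-fold peptide dilutions, incubated overnight at 37° C. Growth read at 630 nm.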

E. coli ampC E416-7 = type: cell-based, Escherichia coli; details: Table 7
Description: The bacterial strains used include the Gram-positive strains Staphylococcus aureus USA300 LAC, S. epidermidis 1457, and Bacillus subtilis 168, as well as the Gram-negative isolates Escherichia coli K12 and Acinetobacter baumannii B2367-12. Additional, drug resistance strains include Gram-positive Enterococcus faecium V286-17 (VRE) and S. aureus M838-17 (MRSA) and Gram-negative E. coli E423-17, E. coli E416-17 (ampC), and P. aeruginosa E411-17. Bacteria were cultivated in tryptic soy broth (TSB) (BD Bioscience, MD).
The antibacterial activity of peptides was evaluated using a standard broth microdilution protocol with minor modifications as described (Mishra, et al. (2012) J. Am. Chem. Soc., 134:12426-12429). In brief, logarithmic phase bacterial cultures (i.e., optical density at 600 nm≈0.5) were diluted to OD600 0.001 and partitioned into a 96-well polystyrene microplate at 90 μL per well. After treatment with 10 μL of peptide solutions two fold diluted to various concentrations, microplates were incubated at 37° C. overnight and read on a ChroMate® 4300 Microplate Reader at 630 nm (GMI, Ramsey, MN). […] To study the influence of medium conditions on the antimicrobial activity of peptides against S. aureus USA300, up to 200 mM sodium chloride (NaCl), 2 mM of calcium chloride, 5-10% of human serum, mouse plasma, fluid, or supernatants of tissue homogenates were included into the assays.

S. aureus USA300 = type: in vivo, Staphylococcus aureus
Description: Female C57BL/6 mice (6 weeks old) were purchased from Charles River. After environment adaptation, mice were induced neutropenic by administering two doses of cyclophosphamide on day 1 (150 mg/kg) and Day 4 (100 mg/kg). This cyclophosphamide administration was skipped for experiments using non-neutropenic mice (i.e., normal mice). On day 5, mice were infected with S. aureus USA300 LAC (˜2×10^6 CFU per mouse) via intraperitoneal injection (i.p.). For the treatment groups, mice were i.p. treated 2 hours post infection with peptides at a single dose of 5 mg/kg. Both positive and negative controls were included. At the end of the experiments, all animals were sacrificed according to institutional guidelines. Organs, including spleen, lung, kidney, and liver, were harvested, weighed, placed in sterile PBS and stored on ice. Harvested animal organs were subsequently homogenized using homogenizer (Omni, Kennesaw, GA). Proper dilutions, especially for untreated control groups, were made to get countable colonies. Blood agar plates were then incubated overnight at 37° C. The bacteria grown on plates were enumerated and plotted using the Graph pad Prism software.
Female C57BL/6 or Balb/c mice (6 weeks old) were purchased from Charles River. The mice were induced neutropenic by administering two doses of cyclophosphamide on day 1 (150 mg/kg) and Day 4 (100 mg/kg). On day 5, mice were infected with S. aureus USA300 (˜2×10^6 CFU per mouse) or K. pneumoniae E406-17 (˜5×10^5 CFU per mouse) via intraperitoneal injection (i.p.). For the treatment groups, mice were i.p. or intravenous (i.v.) treated 2 hours post infection with peptides at a single dose of 5, 10, or 15 mg/kg. Both positive and negative controls are used. At the end of the experiments, all animals were sacrificed according to institutional guidelines. […] The CFU of each mouse was plotted as an individual point and error bars represent the deviation within the experimental group. * p<0.05 ** p<0.01, ***p<0.001 and NS represents no significance (determined by Mann-Whitney test).

[1] = tested on: S. aureus USA300 biofilms; details: 25 μM; 24 hour formed static biofilms
Description: The antibiofilm activity of the peptide against 24 hours established biofilms was evaluated. In short, S. aureus USA300 (10^5 CFU/mL) was made from exponential phase bacteria in TSB media and 200 μL was distributed to each well of the microtiter plate (Corning Costar Cat No. 3595). The plates were incubated at 37° C. for 24 hours to form biofilm. Culture treated with water served as a positive control while media without bacterial inoculation served as the negative control. Media was then pipetted out and the attached biofilms were washed with 1×PBS to remove the planktonic bacteria. Each well of the plate was then filled with 20 μL of 10× peptide solution and 180 μL of fresh TSB media and the plates were further incubated at 37° C. for 24 hours. Media was then pipetted out and the wells were washed with 1×PBS to remove planktonic cells. Live cells in the biofilms were then quantitated using XTT [2,3-bis(2-methyloxy-4-nitro-5-sulfophenyl)-2H-tertazolium-5-carboxanilide] assay by following the manufacturer's instructions with modifications. 180 μL of fresh TSB and 20 μL of XTT solution was added to each well and the plates were again incubated at 37° C. for 2 hours. Absorbance at 450 nm (only media with XTT containing wells served as the blank) was obtained using a ChroMate® microtiter plate reader. […]

K. pneumoniae ATCC 13883 = type: cell-based, Klebsiella pneumoniae; details: ATCC 13883
Summary of the method: as §1

[2] = tested on: Klebsiella pneumoniae clinical strains; assay: microbe, parasite or virus in culture; details: clinical strains
[3] = tested on: clinical strains of methicillin-resistant and susceptible S. aureus; assay: microbe, parasite or virus in culture; details: Staphylococcus aureus

For CC(C)C[C@H](NC(=O)[C@H](CC(C)C)NC(=O)[C@H](CCCCN)NC(=O)[C@H](CC(C)C)NC(=O)CNC(=O)[C@H](CC(C)C)NC(=O)[C@H](CO)NC(=O)[C@H](CC(C)C)NC(=O)[C@H](CC(C)C)NC(=O)[C@H](CC(C)C)NC(=O)[C@H](CCCCN)NC(=O)[C@H](CC(C)C)NC(=O)CN)C(N)=O [DFT561, GLKLLLSLGLKLL] (H-GLKLLLSLGLKLL-NH2; N-terminus and C-terminus assumed), the “MIC PA (P. aeruginosa PAO1)” value (P. aeruginosa PAO1) was over 25 µM, the “MIC E. coli ampC E416-7” value (E. coli ampC E416-7) was over 50 µM and the Killing (S. aureus USA300; USA300, in vivo, 5 mg/kg) was “up to 90%”. For the same molecule, the “S. aureus killed in biofilms” value [1] was 60%.
CC(C)C[C@H](NC(=O)[C@H](Cc1c[nH]c2ccccc12)NC(=O)[C@H](Cc1c[nH]c2ccccc12)NC(=O)[C@@H](N)Cc1c[nH]c2ccccc12)C(=O)N[C@@H](CCCNC(=N)N)C(=O)N[C@@H](CCCNC(=N)N)C(=O)N[C@@H](CCCNC(=N)N)C(=O)N[C@@H](Cc1c[nH]c2ccccc12)C(N)=O [Horine, WWWLRRRW] (H-WWWLRRRW-NH2; N-terminus and C-terminus assumed) was tested, and the “MIC P. aeruginosa PAO1” value (P. aeruginosa PAO1) was 12.5 µM (≈ 16.8 µg/mL), the “MIC K. pneumonia ATCC 13883” value (K. pneumoniae ATCC 13883) was over 25 µM and the MIC [2] was over 64 µM.
Molecule CN[C@H](CC(C)C)C(=O)N[C@H]1C(=O)N[C@@H](CC(N)=O)C(=O)N[C@H]2C(=O)N[C@H]3C(=O)N[C@H](C(=O)N[C@H](C(=O)O)c4cc(O)cc(O)c4-c4cc3ccc4O)[C@H](O)c3ccc(c(Cl)c3)Oc3cc2cc(c3O[C@@H]2O[C@H](CO)[C@@H](O)[C@H](O)[C@H]2O[C@H]2C[C@](C)(N)[C@H](O)[C@H](C)O2)Oc2ccc(cc2Cl)[C@H]1O [Vancomycin] has an MIC ([3]; MSSA, strain B243-16 MSSA) of 0.5 µM (≈ 0.725 µg/mL), an MIC ([3]; MSSA, strain B254-16 MSSA) of 0.5 µM (≈ 0.725 µg/mL) and an MIC ([3]; MSSA, strain B255-16 MSSA) of 1 µM (≈ 1.45 µg/mL). The MIC ([3]; MSSA, strain B262-16 MSSA) was 0.5 µM (≈ 0.725 µg/mL), the MIC ([3]; MSSA, strain B269-16 MSSA) was 1 µM (≈ 1.45 µg/mL) and the MIC ([3]; NEWMAN, strain Newman) was 1 µM (≈ 1.45 µg/mL). For the same molecule, the MIC ([3]; USA200, strain USA200) was 0.5 µM (≈ 0.725 µg/mL), the MIC ([3]; USA300, strain USA300) was 0.5 µM (≈ 0.725 µg/mL) and the MIC ([3]; USA400, strain USA400) was 1 µM (≈ 1.45 µg/mL). For the same molecule, the MIC ([3]; strain M106-16) was 1 µM (≈ 1.45 µg/mL), the MIC ([3]; strain M108-16) was 1 µM (≈ 1.45 µg/mL) and the MIC ([3]; strain M109-16) was 0.5 µM (≈ 0.725 µg/mL). The MIC ([3]; strain M111-16) was 0.5 µM (≈ 0.725 µg/mL), the MIC ([3]; strain M112-16) was 0.5 µM (≈ 0.725 µg/mL) and the MIC ([3]; strain M113-16) was 1 µM (≈ 1.45 µg/mL). It also gave an MIC ([3]; strain M114-16) of 1 µM (≈ 1.45 µg/mL), an MIC ([3]; strain M116-16) of 0.5 µM (≈ 0.725 µg/mL) and an MIC ([3]; strain M117-16) of 0.5 µM (≈ 0.725 µg/mL). The MIC ([3]; strain M118-16) was 1 µM (≈ 1.45 µg/mL), the MIC ([3]; strain M119-16) was 0.5 µM (≈ 0.725 µg/mL) and the MIC ([3]; strain M120-16) was 0.5 µM (≈ 0.725 µg/mL). The MIC ([3]; strain M121-16) was 1 µM (≈ 1.45 µg/mL), the MIC ([3]; strain M122-16) was 1 µM (≈ 1.45 µg/mL) and the MIC ([3]; strain M123-16) was 0.5 µM (≈ 0.725 µg/mL). The MIC ([3]; strain M126-16) was 0.5 µM (≈ 0.725 µg/mL), the MIC ([3]; strain M127-16) was 0.5 µM (≈ 0.725 µg/mL) and the MIC ([3]; strain M128-16) was 1 µM (≈ 1.45 µg/mL). It also gave an MIC ([3]; strain M129-16) of 0.5 µM (≈ 0.725 µg/mL), an MIC ([3]; strain M130-16) of 0.5 µM (≈ 0.725 µg/mL) and an MIC ([3]; strain UAMS-1) of 2 µM (≈ 2.9 µg/mL). The MIC ([3]; strain mu50) was 2 µM (≈ 2.9 µg/mL) and the CFU decrease (S. aureus USA300; spleen, lung, kidney, liver, 10 mg/kg, positive control) was 1-4 logs.
